This is an account of results in publication PMC4434051, “Biological evaluation of new potential anticancer agent for tumour imaging and radiotherapy by two methods: ^99mTc-radiolabelling and EPR spectroscopy” (Biotechnology, Biotechnological Equipment, 2014).

Each structure is given as a SMILES string.

The conditions of data set [1]: cited from earlier work; for half-life: formerly reported.
The subject of another data set is Lymphoma L1210. The arrangement: method as in PMID 19081996, PMID 19718801, PMID 20097958. As to conditions: C57BL/Lymphoma L1210 bearing mice; cited from earlier work.
The conditions of data set [2]: cited from earlier work.
The conditions of data set [3]: cited from earlier work. The source holds these as a separate data set.
Data set [4] in a line: EPR organ and blood distribution of SLENU after i.p. administration. In kind it is in vivo, male albino non-inbred mice. Conditions: i.p. 40 mg/kg. Here is the method:
For EPR experiments of SLENU (administrated i.p. at a dose of 40 mg/kg) blood samples were taken from the free-streaming blood of a male albino non-inbred mice and were collected into heparinized tubes containing PBS (pH = 7–7.4). […] Decay-corrected radioactivity in the blood was expressed as per cent injected dose in the blood, using the total blood volume as 7% of the body weight. Animal protocols have been approved by the Bulgarian/Indian Institutional Animals ethics Committee.
First biodistribution study for EPR experiments of SLENU in organ homogenates (liver, lungs, spleen, pancreas, brain, kidneys) and blood was evaluated in male albino non-inbred mice (35–40 g body weight, normal diet) as previously described by. Spin-labelled nitrosourea was administrated i.p. at a dose of 40 mg/kg. Animals were decapitated at appropriate time points following injection (10, 30, 60, 90 min and on 4 h, 24 h) and dissected. Tissues from lungs, liver, spleen, brain, kidneys, pancreas and blood were collected and processed immediately. For nitrosourea extraction, samples were weighed and homogenized in PBS (10% w/v) and centrifuged at 2000 g for 15 min. Supernatants were collected and the concentration of nitrosourea was evaluated by EPR spectroscopy. Before measuring the spin-labelled concentration, the samples were […] by K3[Fe(CN6)] (a spectroscopic broadening reagent), because of the fast reduction of the nitroxide function (10–20 min) in the tissues.

As for `O=NN(CCCl)C(=O)NC1CCCCC1` [CCNU, 1-(2-chloroethyl)-3-cyclohexyl-1-nitrosourea, reference compound], in data set [1], the half-life was 54 min.
Consider `CCN(N=O)C(=O)NC1CC(C)(C)N([O])C(C)(C)C1` [SLENU, 1-ethyl-1-nitroso-3-[4-(2,2,6,6-tetramethylpiperidine-1-oxyl)]-urea], for which, in the data set with Lymphoma L1210, the “optimal dose for anticancer activity” value is on record as 45 mg/kg. The carbamoylating activity in data set [2] (EPR research) was 54.46 ± 0.17. Besides, the “carbamoylating activity relative to CCNU” value in data set [2] (formerly reported) is “high and comparable with that of CCNU”. Further, the alkylating activity in data set [3] was 0.008 A560/mmol/L/h. The “alkylating activity relative to CCNU” value in data set [3] (formerly reported) is given as “lower than that of CCNU”. Moreover, the “time of maximum concentration in blood (EPR)” value in data set [4] (blood) was determined as 60 min. Besides, the “time of maximum concentration in brain (EPR)” value in data set [4] (brain homogenate) was determined as 60 min. Moreover, in data set [4] (kidneys homogenate), the “time of maximum concentration in kidneys (EPR)” value was found to be 60 min. In addition, the “time of maximum concentration in liver (EPR)” value in data set [4] (liver homogenate) turned out to be 90 min. Further, the “time of maximum concentration in lungs (EPR)” value in data set [4] (lungs homogenate) is on record as 30 min. The “time of maximum concentration in pancreas (EPR)” value in data set [4] (pancreas homogenate) is listed as 60 min. Further, the “time of maximum concentration in spleen (EPR)” value in data set [4] (spleen homogenate) turned out to be 60 min. In addition, in data set [4] (within 24 h, all tissues studied), the “presence of spin-labelled nitrosourea in tissues (EPR)” value was “complete absence”. In addition, in data set [1], the τ0.5 is 75 min and the half-life was 75 min.
